Assay results: patent US20110111044A1, “NANOPARTICLE COMPOSITIONS FOR NUCLEIC ACIDS DELIVERY SYSTEM” (ENZON PHARMACEUTICALS, INC., priority 2008, published 2011)

Columns and labels:
ErbB3 mRNA [1] = test: ErbB3 mRNA KD in tumor of 15PC3 human prostate cancer xenografted mice; type: in vivo; conditions: 45 mg/kg i.v. q3d×4 (G8)
Protocol: (§1) The in vivo efficacy of nanoparticles described herein was evaluated in human prostate cancer xenografted mice. The 15PC3 human prostate tumors were established in nude mice by subcutaneous injection of 5×10^6 cells/mouse into the right auxiliary flank. When tumors reached the average volume of 100 mm^3, the mice were randomly grouped 5 mice per group. The mice of each group were treated with nanoparticle encapsulating antisense ErbB3 oligonucleotides (Sample NP5) or corresponding naked oligonucleotides (Oligo 2). The nanoparticles were given intravenously (i.v.) at 15 mg/kg/dose, 5 mg/kg/dose, 1 mg/kg/dose, or 0.5 mg/kg/dose at q3d×4 for 12 days. The dosage amount is based on the amount of oligonucleotides in the nanoparticles. The naked oligonucleotides were given intraperitoneally (i.p.) at 30 mg/kg/dose or intravenously at 25 mg/kg/dose or 45 mg/kg/dose at q3d×4 for 12 days. The mice were sacrificed twenty four hours after the final dose. Plasma samples were collected from the mice and stored at −20° C. Tumor and liver samples were also collected from the mice. The samples were analyzed for mRNA KD.

ErbB3 mRNA [2] = test: ErbB3 mRNA KD in liver of 15PC3 human prostate cancer xenografted mice; type: in vivo; conditions: 25 mg/kg/dose i.v. q3d×4 (G7)
Protocol: as §1

Oligo-2: antisense ErbB3 LNA, 5′-TAGcctgtcacttmCTmC-3′, phosphorothioate linkage; naked oligonucleotide (antisense 5'-TAGcctgtcactt^{m}CT^{m}C-3'; LNA, as printed in the source, key not given here)
ErbB3 mRNA expression inhibited in tumor (ErbB3 mRNA [1]): about 37% | ErbB3 mRNA KD activity in liver (ErbB3 mRNA [2]): about 87%
